Here are results for four molecules from ChEMBL document CHEMBL1152457, “Antimicrobial drug resistance of Salmonella enterica serovar typhi in asia and molecular mechanism of reduced susceptibility to the fluoroquinolones” (2007).

In brackets after ≈: the same amount, converted by molar mass. Activity calls are given as the source filed them.

Assay [1] deals with Salmonella enterica subsp. enterica. As to the kind of experiment: Antimicrobial activity against multidrug-resistant Salmonella enterica Serovar Typhi isolate B111 harboring DNA gyrase A S83Y mutation by disk diffusion method in presence of plasmid mediated quinolone-resistant gene qnrA and qnrS. In kind it is functional, Salmonella enterica subsp. enterica serovar Typhi. On the technique in general: Agar diffusion results depend on both activity and mobility in agar.

The test system is the same in assay [2]. The assay is described as follows: Antimicrobial activity against Salmonella enterica Serovar Typhi isolate E86 harboring DNA gyrase A S83F mutation by disk diffusion method in presence of plasmid mediated quinolone-resistant gene qnrA and qnrS. In kind it is functional, Salmonella enterica subsp. enterica serovar Typhi.
Assay [3] has the same test system. The assay is described as follows: Antimicrobial activity against multidrug-resistant Salmonella enterica Serovar Typhi isolate nar 46 harboring DNA gyrase A D87G mutation by disk diffusion method. The assay is classed as functional, Salmonella enterica subsp. enterica serovar Typhi.
For assay [4] the test system is unchanged. The assay is described as follows: Antimicrobial activity against multidrug-resistant Salmonella enterica Serovar Typhi isolate ipt 32 harboring DNA gyrase A S83F mutation by disk diffusion method. In kind it is functional, Salmonella enterica subsp. enterica serovar Typhi.
Assay [5] shares this test system. The assay is described as follows: Antimicrobial activity against multidrug-resistant Salmonella enterica Serovar Typhi isolate CT118 harboring DNA gyrase A S83F mutation by disk diffusion method in presence of plasmid mediated quinolone-resistant gene qnrA and qnrS. In kind it is functional, Salmonella enterica subsp. enterica serovar Typhi.
The test system is the same in assay [6]. The assay is described as follows: Antimicrobial activity against Salmonella enterica Serovar Typhi isolate CT145 harboring DNA gyrase A S83F mutation by disk diffusion method in presence of plasmid mediated quinolone-resistant gene qnrA and qnrS. In kind it is functional, Salmonella enterica subsp. enterica serovar Typhi.
The test system is the same in assay [7]. As to the kind of experiment: Antimicrobial activity against multidrug-resistant Salmonella enterica Serovar Typhi isolate DT9 harboring DNA gyrase A S83F mutation by disk diffusion method. The assay is classed as functional, Salmonella enterica subsp. enterica serovar Typhi.
Assay [8] shares this test system. As to the kind of experiment: Antimicrobial activity against multidrug-resistant Salmonella enterica Serovar Typhi isolate DT37 harboring DNA gyrase A S83F mutation by disk diffusion method. The assay is classed as functional, Salmonella enterica subsp. enterica serovar Typhi.
For assay [9] the test system is unchanged. As to the kind of experiment: Antimicrobial activity against multidrug-resistant Salmonella enterica Serovar Typhi isolate DT47 harboring DNA gyrase A S83F mutation by disk diffusion method in presence of plasmid mediated quinolone-resistant gene qnrA and qnrS. The assay is classed as functional, Salmonella enterica subsp. enterica serovar Typhi.
The test system is the same in assay [10]. The assay is described as follows: Antimicrobial activity against multidrug-resistant Salmonella enterica Serovar Typhi isolate DT48 harboring DNA gyrase A S83F mutation by disk diffusion method. In kind it is functional, Salmonella enterica subsp. enterica serovar Typhi.
Assay [11] has the same test system. As to the kind of experiment: Antimicrobial activity against multidrug-resistant Salmonella enterica Serovar Typhi isolate DT49 harboring DNA gyrase A S83F mutation by disk diffusion method. In kind it is functional, Salmonella enterica subsp. enterica serovar Typhi.
The test system is the same in assay [12]. The assay is described as follows: Antimicrobial activity against multidrug-resistant Salmonella enterica Serovar Typhi isolate AG5 harboring DNA gyrase A S83F mutation by disk diffusion method. The assay is classed as functional, Salmonella enterica subsp. enterica serovar Typhi.
The test system is the same in assay [13]. As to the kind of experiment: Antimicrobial activity against multidrug-resistant Salmonella enterica Serovar Typhi isolate AG17 harboring DNA gyrase A S83F mutation by disk diffusion method. In kind it is functional, Salmonella enterica subsp. enterica serovar Typhi.
Assay [14] has the same test system. The assay is described as follows: Antimicrobial activity against multidrug-resistant Salmonella enterica Serovar Typhi isolate AG152 harboring DNA gyrase A S83F and D87G mutation by disk diffusion method in presence of plasmid mediated quinolone-resistant gene qnrA and qnrS. The assay is classed as functional, Salmonella enterica subsp. enterica serovar Typhi.

Assay [15] has the same test system. The assay is described as follows: Antimicrobial activity against multidrug-resistant Salmonella enterica Serovar Typhi isolate AG176 harboring DNA gyrase A S83F mutation by disk diffusion method. In kind it is functional, Salmonella enterica subsp. enterica serovar Typhi.
Assay [16] has the same test system. The assay is described as follows: Antimicrobial activity against Salmonella enterica Serovar Typhi isolate AG182 harboring DNA gyrase A S83F mutation by disk diffusion method. In kind it is functional, Salmonella enterica subsp. enterica serovar Typhi.
For assay [17] the test system is unchanged. The assay is described as follows: Antimicrobial activity against multidrug-resistant Salmonella enterica Serovar Typhi isolate DT18 harboring DNA gyrase A S83F and D87G mutation assessed as decrease in viable count at 8 times MIC after 4 hrs by time-kill analysis. In kind it is functional, organism-based.
Assay [18] has the same test system. As to the kind of experiment: Antimicrobial activity against multidrug-resistant Salmonella enterica Serovar Typhi isolate DT18 harboring DNA gyrase A S83F and D87G mutation assessed as decrease in viable count at 16 times MIC after 4 hrs by time-kill analysis. In kind it is functional, organism-based.
For assay [19] the test system is unchanged. The assay is described as follows: Antimicrobial activity against Salmonella enterica Serovar Typhi isolate CT76 harboring wild type DNA gyrase A assessed as decrease in bacterial population at 4 times MIC after 30 mins by time-kill analysis. The assay is classed as functional, organism-based.
The test system is the same in assay [20]. As to the kind of experiment: Antimicrobial activity against multidrug-resistant Salmonella enterica Serovar Typhi isolate HTD 798 harboring DNA gyrase A S83F mutation assessed as decrease in bacterial population at 4 times MIC after 30 mins by time-kill analysis. The assay is classed as functional, organism-based.
Assay [21] shares this test system. The assay is described as follows: Antimicrobial activity against Salmonella enterica Serovar Typhi isolate CT144 harboring DNA gyrase A D87G mutation assessed as decrease in bacterial population at 4 times MIC after 30 mins by time-kill analysis. In kind it is functional, organism-based.
For assay [22] the test system is unchanged. As to the kind of experiment: Antimicrobial activity against Salmonella enterica Serovar Typhi isolate CT76 harboring wild type DNA gyrase A assessed as complete cell killing at 4 times MIC after 6 hrs by time-kill analysis. The assay is classed as functional, organism-based.
For assay [23] the test system is unchanged. The assay is described as follows: Antimicrobial activity against multidrug-resistant Salmonella enterica Serovar Typhi isolate HTD 798 harboring DNA gyrase A S83F mutation assessed as complete cell killing at 4 times MIC after 6 hrs by time-kill analysis. In kind it is functional, organism-based.
Assay [24] shares this test system. The assay is described as follows: Antimicrobial activity against Salmonella enterica Serovar Typhi isolate CT144 harboring DNA gyrase A D87G mutation assessed as complete cell killing at 4 times MIC after 6 hrs by time-kill analysis. The assay is classed as functional, organism-based.
Assay [25] has the same test system. As to the kind of experiment: Antimicrobial activity against multidrug-resistant Salmonella enterica Serovar Typhi isolate HTD 798 harboring DNA gyrase A S83F mutation assessed as complete cell killing at 4 times MIC after 4 hrs by time-kill analysis. The assay is classed as functional, organism-based.
Assay [26] has the same test system. The assay is described as follows: Antimicrobial activity against Salmonella enterica Serovar Typhi isolate CT144 harboring DNA gyrase A D87G mutation assessed as complete cell killing at 4 times MIC after 4 hrs by time-kill analysis. In kind it is functional, organism-based.
Assay [27] has the same test system. As to the kind of experiment: Antimicrobial activity against Salmonella enterica Serovar Typhi isolate CT76 harboring wild type DNA gyrase A by time-kill analysis. In kind it is functional, organism-based.
The test system is the same in assay [28]. The assay is described as follows: Antimicrobial activity against multidrug-resistant Salmonella enterica Serovar Typhi isolate HTD 798 harboring DNA gyrase A S83F mutation assessed as decrease in viable count at 4 times MIC after 4 hrs by time-kill analysis. In kind it is functional, organism-based.
Assay [29] has the same test system. As to the kind of experiment: Antimicrobial activity against Salmonella enterica Serovar Typhi isolate CT144 harboring DNA gyrase A D87G mutation assessed as decrease in viable count at 4 times MIC after 4 hrs by time-kill analysis. The assay is classed as functional, organism-based.
Assay [30] has the same test system. The assay is described as follows: Antimicrobial activity against multidrug-resistant Salmonella enterica Serovar Typhi isolate DT18 harboring DNA gyrase A S83F and D87G mutation assessed as decrease in viable count at 4 times MIC after 4 hrs by time-kill analysis. The assay is classed as functional, organism-based.

Take `O=C(O)c1cn(C2CC2)c2cc(N3CCNCC3)c(F)cc2c1=O` [CIPROFLOXACIN]: the MIC in assay [1] came to 0.25 mg/L; in assay [2], 0.25 mg/L; in assay [3], 0.06 mg/L (≈ 0.181 µM); in assay [4], 0.5 mg/L (≈ 1.51 µM); in assay [5], 0.38 mg/L; in [6] it was 0.38 mg/L. Further, the MIC in assay [7] came to 0.5 mg/L (≈ 1.51 µM); in assay [8], 0.5 mg/L (≈ 1.51 µM); in assay [9] it was 0.5 mg/L; in [10] it was 0.5 mg/L (≈ 1.51 µM); in assay [11], 0.5 mg/L (≈ 1.51 µM); in [12], 0.5 mg/L (≈ 1.51 µM). Further, the MIC in assay [13] is 0.5 mg/L (≈ 1.51 µM); in [14], 0.38 mg/L; in assay [15], 0.25 mg/L (≈ 0.754 µM); in assay [16] it was 0.38 mg/L (≈ 1.15 µM).
For the molecule `COc1c(N2CCNC(C)C2)c(F)cc2c(=O)c(C(=O)O)cn(C3CC3)c12` (stereo not drawn) [GATIFLOXACIN], the outcome in [17], in [18], in [19], in assay [20], in assay [21] and in assay [22] was Active. Besides, the result in [23] and in assay [24] was Active. Further, the MIC in assay [1] worked out at 0.19 mg/L; in assay [2] it was 0.19 mg/L; in assay [3], 0.032 mg/L (≈ 0.0852 µM); in [4], 0.125 mg/L (≈ 0.333 µM); in assay [5], 0.094 mg/L; in [6], 0.094 mg/L. In addition, the MIC in assay [7] was determined as 0.25 mg/L (≈ 0.666 µM); in [8], 0.125 mg/L (≈ 0.333 µM); in assay [9], 0.125 mg/L; in assay [10], 0.125 mg/L (≈ 0.333 µM); in assay [11], 0.125 mg/L (≈ 0.333 µM); in assay [12], 0.25 mg/L (≈ 0.666 µM). The minimal inhibitory concentration (MIC) in assay [13] came out at 0.19 mg/L (≈ 0.506 µM); in [14] it was 0.25 mg/L; in assay [15], 0.09 mg/L (≈ 0.24 µM); in assay [16] it was 0.13 mg/L (≈ 0.346 µM).
In the case of `CCn1cc(C(=O)O)c(=O)c2ccc(C)nc21` [NALIDIXIC ACID], the MIC in assay [1] is > 256 mg/L; in assay [2] it was > 256 mg/L; in assay [3], 64 mg/L (≈ 276 µM); in assay [4] it was 256 mg/L (≈ 1100 µM); in assay [5], > 256 mg/L; in [6], 128 mg/L. For the same molecule, the MIC in assay [7] was > 256 mg/L; in [8] it was > 256 mg/L; in assay [9], 128 mg/L; in assay [10], > 256 mg/L; in [11] it was > 256 mg/L; in assay [12], > 256 mg/L. The MIC in assay [13], in assay [14], in assay [15] and in assay [16] was > 256 mg/L each time.
As for `CC1COc2c(N3CCN(C)CC3)c(F)cc3c(=O)c(C(=O)O)cn1c23` (stereo not drawn) [OFLOXACIN], the outcome in assay [25], in [26] and in assay [30] was inactive. In addition, the MIC in assay [1] is 0.5 mg/L; in [2], 0.5 mg/L; in [3], 0.5 mg/L (≈ 1.38 µM); in assay [4] it was 1 mg/L (≈ 2.77 µM); in assay [5], 1 mg/L; in [6], 0.5 mg/L. The MIC in assay [7] came out at 2 mg/L (≈ 5.53 µM); in [8] it was 1 mg/L (≈ 2.77 µM); in assay [9] it was 1 mg/L; in assay [10], 1 mg/L (≈ 2.77 µM); in [11], 1 mg/L (≈ 2.77 µM); in assay [12] it was 1 mg/L (≈ 2.77 µM). Moreover, the MIC in assay [13] is 1.5 mg/L (≈ 4.15 µM); in [14], 3 mg/L; in [15] it was 0.75 mg/L (≈ 2.08 µM); in assay [16], 1 mg/L (≈ 2.77 µM). The outcome in assay [27], in [28] and in assay [29] was Active.

One may read the MIC as the smallest concentration in the dilution series that meets the test's criterion for growth inhibition.
